Measured values from patent US12409173B2, “Repurposing FDA-approved drugs as a novel cancer therapeutic avenue through inhibition of PRMT5” (priority 2019, dated 2025).
pIC50: −log10 of the molar value.

How the values were obtained:
[1] = test system: PANC1, HT29 and MCF7 xenografts; assay: Xenograft tumor growth in NSG mice (PANC1, HT29, MCF7); type: in vivo; conditions: PANC1, HT29 or MCF7 xenografts, 100 mg/kg oral gavage daily
Experimental: (§1) Male and female NSG mice were obtained from the In Vivo Therapeutics Core at Indiana University School of Medicine. After acclimation for 7 days, NSG mice (5-6 weeks old) were xenografted with Mycoplasma-free PANC1, MCF7 or HT29 cells subcutaneously (1×10^7 PANC1, 3×10^6 MCF7 or 3×10^6 HT29 cells used per mouse in 0.2 ml of a 1:1 mix of serum free DMEM media, or serum free RPMI media and Matrigel). Male mice were xenografted with PANC1 and HT29 cells. Female mice were xenografted with MCF7 cells. 5 mice were randomized in each group when tumor volumes reached ˜50 mm^3. Mice were treated with either vehicle control (10% DMSO, 20% PEG400, 5% Tween 80 and 65% sterile water), 100 mg/kg or 200 mg/kg candesartan cilexetil dissolved in the vehicle, or 100 mg/kg or 200 mg/kg cloperastine dissolved in the vehicle through oral gavage daily. Tumor volumes were measured 4 times per week and body weights were measured twice a week. The study was performed in accordance with the guidelines and standards of the Institutional Animal Care and Use Committee (IACUC)

[2] = test system: BC cells (MD-MB-231 and BT20); assay: MTT cell viability assay, BC cells; type: cell-based; conditions: 4 days
Experimental: (§2) Cells were grown to 60% density in clear flat-bottom 96-well plates (Corning Inc, Corning, NY) for 24 hours and treated with a range of concentrations of either Clo or Can respectively, followed by incubation for 4 days. 10 μl of MTT dye (Sigma-Aldrich) was added to each well and incubated for 2 hours at 37° C. The media:MTT mixture was then removed and 10 μl DMSO was added per well. Absorbance was measured using Synergy H4 Multi-Mode Reader (BioTek Instruments, Winooski, VT).

NF-κB activation = assay: NF-κB luciferase assay; type: cell-based; conditions: increasing concentrations; PANC1, HT29 and MDA-MB-231 cells; 48 hours
Experimental: The NF-κB luciferase lentiviral construct pLA-NFκBmCMV-luc-H4-puro (containing five tandem copies of the NF-κB site from the IP10 gene) was introduced in the respective cell lines using Lipofectamine™ LTX Reagent and PLUS Reagents (Thermo Fisher Scientific). Luciferase activity was measured after 48 hours (with or without drug treatment) using Reporter Lysis Buffer kit (Promega, Madison, WI) as per manufacturer's instructions and the Synergy H4 Reader.

[3] = test system: IL8 and TNFα mRNA expression; assay: qRT-PCR of NF-κB target genes IL8 and TNFα; type: cell-based; conditions: PANC1, HT29 and MDA-MB-231 cells; 48 hours; vs untreated
Experimental: Following treatment with either Clo or Can for 48 hours, total RNA was isolated from the respective cell lines using Trizol as described earlier. First strand complementary DNA was generated using SuperScript III First-Strand Synthesis Kit (Invitrogen, Carlsbad, CA). Following this, qPCR was executed using FastStart Universal SYBR Green kit (Roche, Indianapolis, IN).

[4] = test system: PANC1, HT29 and MDA-MB231 cells; assay: Three-dimensional (3D) colony formation assay; type: cell-based; conditions: increasing concentrations, 72 hours of drug treatment
Experimental: PANC1 and MDA-MB-231 (1000 cells) as well as HT29 (250 cells) were seeded per well within ultra-low attachment plates (Corning Inc) in media comprising 3% Reduced Growth Factor-Matrigel (BD Biosciences, Franklin Lakes, NJ). Clo and Can were added in a concentration range from 5-100 μM and 5-120 μM respectively after seeding for 48 hours. After 72 hours of drug treatment, the cells were stained using 10% Alamar blue dye (Fisher) and fluorescence was quantified using a Synergy H4 Reader.

[5] = test system: PRMT5-mediated R30 dimethylation of p65 (NF-κB); assay: Western blot for symmetric dimethylation of p65 at R30; type: cell-based; conditions: PANC1, HT29 and MDA-MB-231 cells; treated at MTT IC50 values; vs untreated
Experimental: Primary antibodies for symmetric dimethylation at arginine (R) 30 subunit of p65 (detected by generating a customized polyclonal primary antibody in collaboration with GenScript Inc, Piscataway, NJ) and […] (Sigma-Aldrich) with their corresponding secondary antibodies were used.
PDAC, CRC and BC cells were pelleted post treatment with either Clo or Can in phosphate buffered saline (PBS). Pellets were lysed by overnight incubation at −80° C. as well as addition of lysis buffer [(10 mM Tris-Cl pH 8.0, 1 mM EDTA, 1% Triton X, 0.1% sodium deoxycholate, 0.1% SDS (sodium dodecyl sulfate), 14 mM NaCl, 1 mM phenylmethylsulfonyl fluoride]. Protein concentration for each sample was determined using Protein Assay Reagent (Biorad, Hercules, CA). Equal protein concentrations were run on a 10% SDS-PAGE (polyacrylamide gel electrophoresis) gel and transferred using polyvinylidene fluoride membrane (Thermo Fisher Scientific). Membranes were exposed to respective primary and secondary antibodies at dilutions and times based on manufacturer's instructions. Protein signal was detected using enhanced chemiluminescence (ECL) reagent (PerkinElmer).

PRMT5 = biological target: T1, PRMT5 (Homo sapiens, UniProt O14744); assay: AlphaLISA PRMT5 methyltransferase assay (biotin-H4R3 substrate, SAM); type: biochemical; conditions: PRMT5 methyltransferase activity, FIG. 3C; read-out: IC50 binding affinities by AlphaLISA assay
T1 construct: Flag; made in house; host or cells: 293 cells
T1 sequence (O14744 whole entry): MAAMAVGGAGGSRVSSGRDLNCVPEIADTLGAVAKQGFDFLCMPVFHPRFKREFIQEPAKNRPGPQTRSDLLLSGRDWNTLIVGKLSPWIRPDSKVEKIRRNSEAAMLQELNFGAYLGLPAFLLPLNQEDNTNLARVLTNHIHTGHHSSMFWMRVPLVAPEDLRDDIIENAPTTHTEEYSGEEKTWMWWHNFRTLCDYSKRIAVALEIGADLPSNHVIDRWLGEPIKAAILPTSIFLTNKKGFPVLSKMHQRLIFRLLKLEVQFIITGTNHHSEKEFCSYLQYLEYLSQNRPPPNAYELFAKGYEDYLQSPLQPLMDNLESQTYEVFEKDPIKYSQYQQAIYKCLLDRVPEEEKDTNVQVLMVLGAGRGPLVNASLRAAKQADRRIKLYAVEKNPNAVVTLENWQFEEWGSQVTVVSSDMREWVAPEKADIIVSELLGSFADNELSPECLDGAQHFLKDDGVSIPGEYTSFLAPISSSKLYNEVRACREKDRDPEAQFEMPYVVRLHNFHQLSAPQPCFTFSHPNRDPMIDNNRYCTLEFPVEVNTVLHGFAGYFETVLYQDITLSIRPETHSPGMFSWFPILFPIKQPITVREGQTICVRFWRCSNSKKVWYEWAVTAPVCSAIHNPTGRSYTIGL
T1 sequence (Q9BQA1 whole entry partner): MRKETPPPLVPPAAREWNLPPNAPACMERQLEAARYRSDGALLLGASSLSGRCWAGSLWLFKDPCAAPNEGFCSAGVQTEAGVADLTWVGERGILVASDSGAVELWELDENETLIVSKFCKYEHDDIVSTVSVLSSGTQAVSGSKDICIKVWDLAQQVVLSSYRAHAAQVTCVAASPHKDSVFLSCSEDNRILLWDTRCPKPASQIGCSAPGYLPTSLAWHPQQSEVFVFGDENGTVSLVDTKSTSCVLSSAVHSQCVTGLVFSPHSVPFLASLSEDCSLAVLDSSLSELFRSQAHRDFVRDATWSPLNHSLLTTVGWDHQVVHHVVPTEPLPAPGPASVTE
Text: For AlphaLISA HTS: the substrate, histone H4 peptide unmethylated at arginine (R) 3 (unmeH4R3) was purchased from AnaSpec (Fremont, CA). The 23-amino acid H4R3 peptide was biotinylated at its N′ terminus: […]-K(biotin)-NH2 (SEQ ID NO: 1). S-adenosyl methionine (SAM) was used as a methyl group donor (New England Biolabs, Ipswich, MA). Compound libraries comprising of FDA-approved drugs, synthetic and semi-synthetic natural products as well as bioactives were collectively purchased from Analyticon Discovery (Rockville, MD), MilliporeSigma (Burlington, MA) and Microsource Discovery Systems Inc (Gaylordsville, CT). Acceptor beads specific for dimethylated H4R3, Donor beads with a streptavidin tag, assay buffer, OptiPlate™ 384-well white bottom plates, TopSeal™-A film to seal the plates and EnVision® Multilabel Reader were sourced from PerkinElmer (Waltham, MA). […]
A detailed description of optimization of the AlphaLISA HTS screening protocol has already been published previously. […] Alpha signal was then quantified using the EnVision® reader.
To design a drug screen to check for compounds that had the potential to inhibit PRMT5 methyltransferase activity, the AlphaLISA assay was utilized. […] This emitted AlphaLISA signal is directly proportional to the methyltransferase activity of PRMT5, thus allowing for quantification of its enzymatic activity.

[6] = set-up: species or system mice; conditions: mouse, in vivo, po, 100 mg/kg
Experimental: as §1

[7] = test system: CRC cell lines (HT29, HCT116 and DLD1); assay: MTT cell viability assay, CRC cells; type: cell-based; conditions: 4 days
Experimental: as §2

[8] = test system: PDAC cells (PANC1, MiaPaCa2 and AsPC1); assay: MTT cell viability assay, PDAC cells; type: cell-based; conditions: 4 days
Experimental: as §2

Row | Compound | tumor sizes over time relative to control mice [1] | pIC50 [2] | activation of NF-κB (luciferase) (NF-κB activation) | mRNA expression of IL8 and TNFα [3] | extent of 3D colony formation [4] | dimethylation levels at R30 of p65 [5] | pIC50 (PRMT5) | body weights over the course of treatment [6] | pIC50 [7] | pIC50 [8]
1 | CCOc1nc2cccc(C(=O)OC(C)OC(=O)OC3CCCCC3)c2n1Cc1ccc(-c2ccccc2-c2nn[nH]n2)cc1 (centres unmarked) [Can, Candesartan cilexetil] | remarkably reduced tumor sizes | 4.70 to 4.74 | concurrent decrease | significant decrease | marked decrease | reduction in the dimethylation levels at R30 | 4.48 | body weights remained similar | 4.77 to 4.82 | ~4.70
2 | Cl.Clc1ccc(C(OCCN2CCCCC2)c2ccccc2)cc1 (centres unmarked) [Clo, Cloperastine hydrochloride] | significantly reduced tumor sizes | 4.54 to 4.59 | concurrent decrease | significant decrease | marked decrease | reduction in the dimethylation levels at R30 | 4.57 | body weights remained similar | 4.47 to 4.74 | ~4.52
